# Values of other authors, collected in patent publication US8283154B2, “Method of decontaminating polluted environments with bacteria on a porous support” (National Institute for Agro-Environmental Sciences …, priority 2005, dated 2012).
smiles,measurement,value
"Clc1c(Cl)c(Cl)c(Cl)c(Cl)c1Cl [HCB, hexachlorobenzene]",aqueous solubility,0.005 ppm
